According to US8044035B2, “Pharmaceutical compositions of pyrimidine-2,4,6-triones” (priority 2004, dated 2011):
In brackets after ≈: the same amount, converted by molar mass. Read-outs that look alike come from different tables or passages of the source.

What was measured:
[1] = Differential solubility in acetonitrile of free and complexed compound I; format: physicochemical; conditions: organic solvent or mixture; free compound
Excerpt: Compound I has different solubility when it is in the complex form or not. […] In these conditions the included drug remains trapped and becomes insoluble in the solvent. This technique of differential solubility between compound I in the free or in the complexed form can be applied to evaluate the percentage of complexation.

[2] = Phase solubility studies of Compound I with cyclodextrins (excess compound, 7 days, 37° C., HPLC); format: physicochemical; conditions: for solubility at 7 days: 37 °C, thermodynamic from solid
Description: At the time of a complex formation, compound I, practically insoluble in water (<0.6 μg/ml, MW: 485), solubilizes dramatically. The increase in the solubility of compound I is thus proof of a complex formation between Compound I and the CD. Complex formation and achievement of the equilibrium is found at 20% after 1 day, 40% after 4 days, and 100% after 7 days. The solubility diagrams (FIG. 1) are carried out by adding an excess of compound I to the CD solutions of increasing concentration. After 7 days of stirring in thermostatically controlled baths at 37° C., these solutions are filtered and the solubilized compound I quantity is dosed by HPLC. The βCD and the γCD as well as their synthetic derivatives have allowed complexes with compound I to be formed. The β-CD and the HPβCD come from ROQUETTE (France), the RMβCD and the γCD have been supplied by Wacker (Germany).
The flasks containing compound I and the cyclodextrins are placed being stirred in thermostatically controlled baths at 37° C. for 7 days, so that the complexation balance is reached. After this time, the suspensions are filtered with the help of a milli-pore filter 0.22 μm in PVDF and the filtrate is dissolved in DMSO in the mobile phase to obtain concentration samples situating themselves on the calibrating line. They are then dosed thanks to the validated HPLC method, described below.
Mobile phase: mixture of phosphate buffer 0.05 M to pH=3 and methanol (30/70, v/v). Gas is extracted by an ultrasound passage for 15 minutes, output: 1 ml/min, λ of U.V. detection: 265 nm, Working temperature: 30° C., Injection volume: 20 μl.
The results of the HPLC dosages of Compound I are reproduced in the tables below (Tables 1 to 4) for each cyclodextrin.

[3] = test system: allergen-induced airway inflammation in a mouse model of asthma; experiment: Mouse model of asthma, inhalation, long-term exposure challenge (11 weeks); conditions: aerosol, long term (11 weeks) allergen exposure, p<0.01
Description: Intraperitoneal injections were performed 30 min before OVA inhalations. […] Two protocols referred to as short exposure challenge and long-term exposure challenge were used. […] No inhalations were performed during even weeks.
(§1) The aerosol were produced by using an ultrasonic nebuliser SYSTAM (Système Assistance Medical, Le Ledat, France), the vibration frequency of which is 2.4 MHz with variable vibration intensity and ventilation levels. Vibration intensity was fixed in position 6 and the ventilation level was 25(v1/2) l/min.
Immediately after the assessment of airway responsiveness, mice were sacrificed and 1 ml of PBS free of ionised calcium and magnesium but supplemented with 0.05 mM sodium EDTA was instilled 4 times via a tracheal cannula and recovered by gentle manual aspiration. […] After BAL, the thorax was opened and the left main bronchus was clamped. […] Another score referred to as tissue eosinophil infiltration score, specifically reflecting the amounts of eosinophils infiltrating the bronchial walls, was measured as follows: after a congo red staining, seven bronchi were studied per mouse. The eosinophils were counted around the bronchi within the limits of the airway wall, the perimeter of the epithelial basement membrane was measured and the results were expressed as number of eosinophils/mm of basement membrane.

[4] = test system: allergen-induced airway inflammation and bronchial hyperresponsiveness in a mouse model of asthma; experiment: Mouse model of asthma, inhalation, short exposure challenge; conditions: inhalation of Compound I 40 mg/ml in pure DMSO, short-term exposure, vs DMSO alone
Description: Two protocols referred to as short exposure challenge and long-term exposure challenge were used. […] No inhalations were performed during even weeks.
as §1
Twenty-four hours after the last allergen exposure, the bronchial hyper responsiveness was determined by measuring the Penh using a barometric plethysmograph as proposed by Hamelmann, E., et al., Am. […] The Penh was measured at baseline and 5 min after the inhalation of increasing doses (25, 50, 75 and 100 mM) of methacholine (Mch).
Immediately after the assessment of airway responsiveness, mice were sacrificed and 1 ml of PBS free of ionised calcium and magnesium but supplemented with 0.05 mM sodium EDTA was instilled 4 times via a tracheal cannula and recovered by gentle manual aspiration. The recovered bronchoalveolar lavage fluid (BAL) was centrifuged (1800 rpm for 10 min at 4° C.). The cell pellet was washed twice and finally resuspended in 1 ml of PBS. A total cell count was performed in a Thoma chamber and the differential cell counts on at least 400 cells were performed on cytocentrifuged preparations (Cytospin 2; Cytospin, Shandon td., Runcorn, Cheshire, U.K.) using standard morphologic criteria after staining with Diff-Quick (Dade, Germany). After BAL, the thorax was opened and the left main bronchus was clamped. […] Sections of 5 μm thickness from all lobes were stained with haematoxylin and eosin. The extent of peribronchial infiltrates was estimated by an inflammation score. […] A value from 0 to 3 per criteria was adjudged to each tissue section scored. […] As 5-7 randomly selected tissue sections per mouse were scored, inflammation scores could be expressed as a mean value per animal and could be compared between groups.

[5] = Phase solubility studies with L-lysine solution as adjuvant (25° C., 7 days, LC); format: physicochemical
Description: Solubility studies were performed as described by Higuchi, T., and Connors, K. A., Advances in Analytical Chemistry and Instrumentation 4 (1965) 117-212. Excess amounts of Compound I were added to increasing concentrations of HP-β-CD (0-200 mM) in 5 ml dissolution media, either purified water or L-lysine solutions (50 mM or 500 mM). The glass containers were sealed and the suspensions were shaken in a water-bath at 25° C. until complexation equilibrium was reached (7 days). An aliquot was filtered through a 0.45 μm PVDF membrane filter and assayed for Compound I content by a validated liquid chromatography (LC) method.

O=C1NC(=O)C(c2ccc(-c3ccccc3)cc2)(N2CCN(c3ccc([N+](=O)[O-])cc3)CC2)C(=O)N1 [Compound I, 5-Biphenyl-4-yl-5-[4-(4-nitro-phenyl)-piperazin-1-yl]pyrimidine-2,4,6-trione]
solubility [1]: ~700 µg/mL (≈ 1440 µM) | solubility at 7 days ([2]; HPβCD solution, aqueous with cosolvent or surfactant or cyclodextrin, HPβCD, maximum concentration used 200 mM, read-out: Maximum solubility): 4960 µg/mL (≈ 10200 µM) | Concentration of Compound I (solubility) ([2]; RMβCD 10 mM, 37° C., 7 days): 120.6 µg/mL | solubility at 7 days ([2]; RMβCD solution, aqueous with cosolvent or surfactant or cyclodextrin, RMβCD, maximum concentration used 200 mM, read-out: Maximum solubility): 11900 µg/mL (≈ 24600 µM) | Complex formation and achievement of the equilibrium ([2]; after 1 day): 20% | Complex formation and achievement of the equilibrium ([2]; after 4 days): 40% | Complex formation and achievement of the equilibrium ([2]; after 7 days): 100% | K1:1 (stability constant) ([2]; complex with HP-βCD): 12575 M⁻¹ | K1:2 (stability constant) ([2]; complex with HP-βCD): 14.4 M⁻¹ | K1:1 (stability constant) ([2]; complex with RMβCD): 27595 M⁻¹ | K1:2 (stability constant) ([2]; complex with RMβCD): 22.88 M⁻¹ | K1:1 (stability constant) ([2]; complex with βCD): 2092 M⁻¹ | K1:1 (stability constant) ([2]; complex with γCD): 346 M⁻¹ | solubility at 7 days ([2]; cyclodextrin solution, aqueous with cosolvent or surfactant or cyclodextrin, HPβCD 10 mM, 37° C., 7 days, read-out: Concentration of Compound I (solubility)): 188 µg/mL (≈ 387 µM) | solubility at 7 days ([2]; cyclodextrin solution, aqueous with cosolvent or surfactant or cyclodextrin, HPβCD 25 mM, 37° C., 7 days, read-out: Concentration of Compound I (solubility)): 213 µg/mL (≈ 440 µM) | solubility at 7 days ([2]; cyclodextrin solution, aqueous with cosolvent or surfactant or cyclodextrin, HPβCD 50 mM, 37° C., 7 days, read-out: Concentration of Compound I (solubility)): 236 µg/mL (≈ 486 µM) | solubility at 7 days ([2]; cyclodextrin solution, aqueous with cosolvent or surfactant or cyclodextrin, HPβCD 75 mM, 37° C., 7 days, read-out: Concentration of Compound I (solubility)): 1130 µg/mL (≈ 2330 µM) | solubility at 7 days ([2]; cyclodextrin solution, aqueous with cosolvent or surfactant or cyclodextrin, HPβCD 100 mM, 37° C., 7 days, read-out: Concentration of Compound I (solubility)): 1660 µg/mL (≈ 3430 µM) | solubility at 7 days ([2]; cyclodextrin solution, aqueous with cosolvent or surfactant or cyclodextrin, HPβCD 150 mM, 37° C., 7 days, read-out: Concentration of Compound I (solubility)): 3110 µg/mL (≈ 6400 µM) | solubility at 7 days ([2]; cyclodextrin solution, aqueous with cosolvent or surfactant or cyclodextrin, HPβCD 200 mM, 37° C., 7 days, read-out: Concentration of Compound I (solubility)): 4960 µg/mL (≈ 10200 µM) | solubility at 7 days ([2]; cyclodextrin solution, aqueous with cosolvent or surfactant or cyclodextrin, RMβCD 25 mM, 37° C., 7 days, read-out: Concentration of Compound I (solubility)): 527 µg/mL (≈ 1080 µM) | solubility at 7 days ([2]; cyclodextrin solution, aqueous with cosolvent or surfactant or cyclodextrin, RMβCD 50 mM, 37° C., 7 days, read-out: Concentration of Compound I (solubility)): 1530 µg/mL (≈ 3150 µM) | solubility at 7 days ([2]; cyclodextrin solution, aqueous with cosolvent or surfactant or cyclodextrin, RMβCD 75 mM, 37° C., 7 days, read-out: Concentration of Compound I (solubility)): 3010 µg/mL (≈ 6200 µM) | solubility at 7 days ([2]; cyclodextrin solution, aqueous with cosolvent or surfactant or cyclodextrin, RMβCD 100 mM, 37° C., 7 days, read-out: Concentration of Compound I (solubility)): 4680 µg/mL (≈ 9630 µM) | solubility at 7 days ([2]; cyclodextrin solution, aqueous with cosolvent or surfactant or cyclodextrin, RMβCD 150 mM, 37° C., 7 days, read-out: Concentration of Compound I (solubility)): 8320 µg/mL (≈ 17100 µM) | solubility at 7 days ([2]; cyclodextrin solution, aqueous with cosolvent or surfactant or cyclodextrin, RMβCD 200 mM, 37° C., 7 days, read-out: Concentration of Compound I (solubility)): 12000 µg/mL (≈ 24600 µM) | solubility at 7 days ([2]; cyclodextrin solution, aqueous with cosolvent or surfactant or cyclodextrin, concentrations above 8 mM βCD, read-out: Solubility of additional complex of 1:2 stoichiometry (Cpd. I: βCD)): 1.5 µg/mL (≈ 3.09 µM) | solubility at 7 days ([2]; cyclodextrin solution, aqueous with cosolvent or surfactant or cyclodextrin, in the presence of HPβCD, CD 2 mM, 37° C., 7 days, read-out: Concentration of Compound I (solubility)): 2.4 µg/mL | solubility at 7 days ([2]; cyclodextrin solution, aqueous with cosolvent or surfactant or cyclodextrin, in the presence of HPβCD, CD 4 mM, 37° C., 7 days, read-out: Concentration of Compound I (solubility)): 6.8 µg/mL | solubility at 7 days ([2]; cyclodextrin solution, aqueous with cosolvent or surfactant or cyclodextrin, in the presence of HPβCD, CD 8 mM, 37° C., 7 days, read-out: Concentration of Compound I (solubility)): 6.6 µg/mL | solubility at 7 days ([2]; cyclodextrin solution, aqueous with cosolvent or surfactant or cyclodextrin, in the presence of HPβCD, CD 10 mM, 37° C., 7 days, read-out: Concentration of Compound I (solubility)): 3.4 µg/mL | solubility at 7 days ([2]; cyclodextrin solution, aqueous with cosolvent or surfactant or cyclodextrin, in the presence of HPβCD, CD 12 mM, 37° C., 7 days, read-out: Concentration of Compound I (solubility)): 1.6 µg/mL | solubility at 7 days ([2]; cyclodextrin solution, aqueous with cosolvent or surfactant or cyclodextrin, in the presence of HPβCD, CD 16 mM, 37° C., 7 days, read-out: Concentration of Compound I (solubility)): 1.5 µg/mL | solubility at 7 days ([2]; cyclodextrin solution, aqueous with cosolvent or surfactant or cyclodextrin, γCD 10 mM, 37° C., 7 days, read-out: Concentration of Compound I (solubility)): 1.3 µg/mL (≈ 2.68 µM) | solubility at 7 days ([2]; cyclodextrin solution, aqueous with cosolvent or surfactant or cyclodextrin, γCD 100 mM, 37° C., 7 days, read-out: Concentration of Compound I (solubility)): 19.5 µg/mL (≈ 40.2 µM) | solubility at 7 days ([2]; cyclodextrin solution, aqueous with cosolvent or surfactant or cyclodextrin, γCD 200 mM, 37° C., 7 days, read-out: Concentration of Compound I (solubility)): 29.1 µg/mL (≈ 59.9 µM) | solubility at 7 days ([2]; water without cyclodextrin, water, without cyclodextrin, read-out: Solubility in water): < 0.6 µg/mL | solubility at 7 days ([2]; βCD solution, aqueous with cosolvent or surfactant or cyclodextrin, βCD, maximum concentration used 4 mM, read-out: Maximum solubility): 6.8 µg/mL (≈ 14 µM) | solubility at 7 days ([2]; γCD solution, aqueous with cosolvent or surfactant or cyclodextrin, γCD 25 mM, 37° C., 7 days, read-out: Concentration of Compound I (solubility)): 3.2 µg/mL (≈ 6.59 µM) | solubility at 7 days ([2]; γCD solution, aqueous with cosolvent or surfactant or cyclodextrin, γCD 50 mM, 37° C., 7 days, read-out: Concentration of Compound I (solubility)): 11.4 µg/mL (≈ 23.5 µM) | solubility at 7 days ([2]; γCD solution, aqueous with cosolvent or surfactant or cyclodextrin, γCD 75 mM, 37° C., 7 days, read-out: Concentration of Compound I (solubility)): 13.6 µg/mL (≈ 28 µM) | solubility at 7 days ([2]; γCD solution, aqueous with cosolvent or surfactant or cyclodextrin, γCD, maximum concentration used 200 mM, read-out: Maximum solubility): 29.1 µg/mL (≈ 59.9 µM) | Tissue eosinophil infiltration score [3]: decreased | BAL eosinophils ([4]; p<0.005): significant decrease | Peribronchial inflammation scores ([4]; p<0.01): significant decrease | Bronchial hyperresponsiveness ([4]; p<0.05): significant decrease | Increase of aqueous solubility ([5]; 200 mM HP-β-CD, absence of L-lysine): approximately 10,000 fold | Increase of aqueous solubility ([5]; 500 mM of L-lysine and 200 mM of HP-β-CD): 70,000 fold | Solubility with HP-β-CD (200 mM) ([5]; Purified Water, 25° C.): 5530 µg/mL
